Laboratory results reported in patent publication US6864286B2, “Inhibitors of the EGF-receptor tyrosine kinase and methods for their use” (Parker Hughes Institute, priority 1998, dated 2005).
Entries after “also recorded” stand apart in the source; their conditions may differ.

What was measured:
MDA-MB-361 cells = assay: In vitro clonogenic assay, MDA-MB-361; assay type: cell-based, human; details: 24 hour treatment; for inhibition at 0.1 µM / inhibition at 10 µM / inhibition at 100 µM: Homo sapiens
Description: In order to determine the cytotoxic activity of LFM and its analogs against breast cancer cells, cells in alpha-MEM supplemented with 10% (v/v) fetal calf serum were treated with various concentrations of the compounds for 24 hours at 37° C., washed twice in alpha-MEM, and then used in either MTT assays or in vitro invasion assays, as described hereinafter.
After treatment with LFM analogs, cells were resuspended in clonogenic medium consisting of alpha-MEM supplemented with 0.9% methylcellulose, 30% fetal bovine serum, and 50 μM 2-mercaptoethanol. Cells were plated in duplicate Petri dishes at 100,000 cells/mL/dish and cultured in a humidified 5% CO2 incubator for 7 days. Cancer cell colonies were enumerated on a grid using an inverted phase microscope of high optical resolution (Uckun F. M., et al. Clin. Cancer Res. 1998, 4, 901-912; and Kuo). Results were expressed as % inhibition of clonogenic cells at a particular concentration of the test agent using the formula: % Inhibition=(1-Mean # of colonies [Test]/Mean # of colonies [Control])×100. Furthermore, the dose survival curves were constructed using the percent control survival (=Mean # of colonies[Test]/Mean # of colonies [Control]×100) results for each drug concentration as the data points and the IC50 values were calculated. The IC50 values were determined using an Prism Version II Inplot program (Graphpad Software, Inc., San Diego, Calif.).

MDA-MB-231 cells = assay: Confocal laser scanning microscopy of treated cells; assay type: cell-based, human; details: MDA-MB-231, 100 μM, 24 hours, α-tubulin / TOTO-3 staining
Description: Immunofluorescence was used to examine the morphologic features of breast cancer cells treated with LFM and its analogs. Before the experiment, cells were trypsinized from rapidly growing tissue culture flasks and seeded onto sterile 22 mm^2 coverslips in 6-well culture plates. Cells on coverslips were returned to the incubator for 24 hours prior to treatment. The following day, drugs were added from a stock solution made in DMSO to a final concentration of 100 μM. Final DMSO concentration was 0.1% in both test samples and controls. Cells were returned to a 37° C. incubator for 24 hours before further processing.
At 24 hours, coverslips were fixed in −20° C. methanol for 15 minutes followed by a 15 minute incubation in phosphate buffered saline +0.1% Triton X-100(PBS-Tx). Coverslips were next incubated with a monoclonal antibody against α-tubulin (Sigma Chemical Co, St. Louis, Mo.) at a dilution of 1:1000 for 40 minutes in a humidified chamber at 37° C. Coverslips were washed for 15 minutes in PBS-Tx followed by a 40 min incubation with a goat anti-mouse IgG antibody conjugated to FITC (Amersham Corp., Arlington Heights, Ill.). The coverslips were again rinsed in PBS-Tx and incubated with 5 μM TOTO-3 (Molecular Probes, Eugene Oreg.) for 20 minutes to label the nuclear DNA. […]

Compound	inhibition at 0.1 µM (MDA-MB-361 cells; MDA-MB-361, 0.1 μM) [%]	inhibition at 10 µM (MDA-MB-361 cells; MDA-MB-361, 10 μM) [%]	inhibition at 100 µM (MDA-MB-361 cells; MDA-MB-361, 100 μM) [%]	Tumor Cell Colonies/10^5 Cells (MDA-MB-361 cells; MDA-MB-361, 0.1 μM)	Tumor Cell Colonies/10^5 Cells (MDA-MB-361 cells; MDA-MB-361, 10 μM)	Tumor Cell Colonies/10^5 Cells (MDA-MB-361 cells; MDA-MB-361, 100 μM)	morphology and microtubular organization of treated cells (MDA-MB-231 cells)
CC(O)=C(C#N)C(=O)Nc1ccc(C(F)(F)F)cc1 [LFM, α-Cyano-β-hydroxy-β-methyl-N-[4-(trifluoromethyl)phenyl]-propenamide, reference compound]	27.3	51.5	82.3	803	535	196	–
C/C(O)=C(\C#N)C(=O)Nc1ccc(OC(F)(F)F)cc1 [LFM-A12, α-Cyano-β-hydroxy-β-methyl-N-[4-(trifluoromethoxy)phenyl]-propenamide]	32.4	60.2	87.3	746	440	140	much smaller and had an abnormal shape with large cytoplasmic vacuoles; also recorded: marked shrinkage with disruption of microtubules
